Reference: US5159077A, “Penam antibacterial compounds” (Hoffmann-La Roche Inc., priority 1989, dated 1992)
Counter-ions that a name gives are not always drawn. Like-named read-outs stand apart in the source and are kept apart here.

How the values were obtained:
Micrococcus luteus PCl = experiment: In vitro MIC, Agar Well Diffusion Method; type: cell-based; details: Agar Well Diffusion Method; Micrococcus luteus PCl; read-out: In Vitro MIC
Protocol: (§1) In vitro antimicrobial activity was determined in BBL seed agar. Serial dilutions of the test compound were pipetted into agar wells (80 μL per well). […] For reference, see A. H. Litton, Antibiotics: Assessment of Antimicrobial Activity and Resistance, Academic Press, New York, pages 19-30 (1983).

Escherichia coli 1269B = experiment: In vitro MIC, Agar Well Diffusion Method; type: cell-based; details: Agar Well Diffusion Method; Escherichia coli 1269B; read-out: In Vitro MIC
Protocol: as §1

Serratia marcescens SM [1] = experiment: In vitro MIC, Agar Well Diffusion Method; type: cell-based; details: Agar Well Diffusion Method; Serratia marcescens SM; read-out: In Vitro MIC
Protocol: as §1

[2] = test system: Pseudomonas aeruginosa 56; experiment: In vitro MIC, Agar Well Diffusion Method; type: cell-based; details: Agar Well Diffusion Method; Pseudomonas aeruginosa 56; read-out: In Vitro MIC
Protocol: as §1

[3] = test system: Streptococcus faecium ATCC 8043; experiment: In vitro MIC, Agar Well Diffusion Method; type: cell-based; details: Enterococcus faecium, ATCC8043; Agar Well Diffusion Method; Streptococcus faecium ATCC 8043; read-out: In Vitro MIC
Protocol: as §1

Proteus vulgaris 101N = experiment: In vitro MIC, Agar Well Diffusion Method; type: cell-based; details: Agar Well Diffusion Method; Proteus vulgaris 101N; read-out: In Vitro MIC
Protocol: as §1

[4] = test system: Klebsiella pneumoniae 369; experiment: In vitro MIC, Agar Well Diffusion Method; type: cell-based; details: Agar Well Diffusion Method; Klebsiella pneumoniae 369; read-out: In Vitro MIC
Protocol: as §1

Pseudomonas aeruginosa B = experiment: In vitro MIC, Agar Well Diffusion Method; type: cell-based; details: Agar Well Diffusion Method; Pseudomonas aeruginosa B; read-out: In Vitro MIC
Protocol: as §1

[5] = test system: Enterobacter cloacae 2952B; experiment: In vitro MIC, Agar Well Diffusion Method; type: cell-based; details: Agar Well Diffusion Method; Enterobacter cloacae 2952B; read-out: In Vitro MIC
Protocol: as §1

Streptococcus 82 = experiment: In vitro MIC, Agar Well Diffusion Method; type: cell-based, Streptococcus aureus; details: Agar Well Diffusion Method; Streptococcus aureus 82; read-out: In Vitro MIC
Protocol: as §1

[6] = test system: Streptococcus faecalis ATCC 29212; experiment: In vitro MIC, Broth Dilution Method; type: cell-based; details: Enterococcus faecalis, ATCC29212; Broth Dilution Method; Streptococcus faecalis ATCC 29212; read-out: In Vitro MIC
Protocol: (§2) The diluted agents prepared in Mueller-Hinton broth were dispensed from a Dynatech MIC 2000 machine, in 100 microliter (μL) volumes into 96 well trays and used immediately or frozen at -10° to -70° C. until needed. Using a Dynatech inoculator and inoculum trays, 1.5 μL of a 10^-2 dilution of an overnight culture was added to each well of the tray. The tops of the trays were then sealed with tape, and the trays were incubated overnight at 37° C. and then examined with a viewer. The lowest concentration at which no growth was observed was considered to be the minimum inhibitory concentration (MIC).

[7] = test system: Staphylococcus aureus Smith; experiment: In vitro MIC, Broth Dilution Method; type: cell-based; details: Broth Dilution Method; Staphylococcus aureus Smith; read-out: In Vitro MIC
Protocol: as §2

Proteus mirabilis 2 = experiment: In vitro MIC, Broth Dilution Method; type: cell-based
Protocol: as §2

[8] = test system: Enterobacter cloacae 5699; experiment: In vitro MIC, Broth Dilution Method; type: cell-based
Protocol: as §2

Serratia marcescens SM [9] = experiment: In vitro MIC, Broth Dilution Method; type: cell-based; details: Broth Dilution Method; Serratia marcescens SM; read-out: In Vitro MIC
Protocol: as §2

[10] = test system: Proteus vulgaris ATCC 6380; experiment: In vitro MIC, Broth Dilution Method; type: cell-based; details: Proteus vulgaris, ATCC6380, read-out: In Vitro MIC
Protocol: as §2

Escherichia coli TEM-1 = experiment: In vitro MIC, Broth Dilution Method; type: cell-based; details: TEM1, read-out: In Vitro MIC
Protocol: as §2

Klebsiella pneumoniae A = experiment: In vitro MIC, Broth Dilution Method; type: cell-based; details: Broth Dilution Method; Klebsiella pneumoniae A; read-out: In Vitro MIC
Protocol: as §2

Enterobacter cloacae P99 = experiment: In vitro MIC, Broth Dilution Method; type: cell-based; details: P99, read-out: In Vitro MIC
Protocol: as §2

[11] = test system: Citrobacter freundii BS-16; experiment: In vitro MIC, Broth Dilution Method; type: cell-based; details: BS16; Broth Dilution Method; Citrobacter freundii BS-16; read-out: In Vitro MIC
Protocol: as §2

[12] = test system: Pseudomonas aeruginosa ATCC 27853; experiment: In vitro MIC, Broth Dilution Method; type: cell-based; details: ATCC27853; Broth Dilution Method; Pseudomonas aeruginosa ATCC 27853; read-out: In Vitro MIC
Protocol: as §2

[13] = test system: Pseudomonas aeruginosa Stone 130; experiment: In vitro MIC, Broth Dilution Method; type: cell-based; details: STONE130; Broth Dilution Method; Pseudomonas aeruginosa Stone 130; read-out: In Vitro MIC
Protocol: as §2

[14] = test system: Staphylococcus aureus ATCC 29213; experiment: In vitro MIC, Broth Dilution Method; type: cell-based; details: ATCC29213; Broth Dilution Method; Staphylococcus aureus ATCC 29213; read-out: In Vitro MIC
Protocol: as §2

Proteus mirabilis 90 = experiment: In vitro MIC, Broth Dilution Method; type: cell-based; details: Broth Dilution Method; Proteus mirabilis 90; read-out: In Vitro MIC
Protocol: as §2

Escherichia coli 4 = experiment: In vitro MIC, Broth Dilution Method; type: cell-based; details: Broth Dilution Method; Escherichia coli 4; read-out: In Vitro MIC
Protocol: as §2

[15] = test system: Streptococcus pneumoniae 6301; experiment: In vitro MIC, Broth Dilution Method; type: cell-based; details: Broth Dilution Method; Streptococcus pneumoniae 6301; read-out: In Vitro MIC
Protocol: as §2

[16] = Enterobacter cloacae, 5699, read-out: In Vitro MIC
[17] = Proteus mirabilis, 2, read-out: In Vitro MIC

Compound	MIC (Micrococcus luteus PCl) [µg/mL]	MIC (Escherichia coli 1269B) [µg/mL]	MIC (Serratia marcescens SM [1]) [µg/mL]	MIC [2] [µg/mL]	MIC [3] [µg/mL]	MIC (Proteus vulgaris 101N) [µg/mL]	MIC [4] [µg/mL]	MIC (Pseudomonas aeruginosa B) [µg/mL]	MIC [5] [µg/mL]	MIC (Streptococcus 82) [µg/mL]	MIC [6] [µg/mL]	MIC [7] [µg/mL]	MIC [8, 16] [µg/mL]	MIC (Serratia marcescens SM [9]) [µg/mL]	MIC [10] [µg/mL]	MIC (Escherichia coli TEM-1) [µg/mL]	MIC (Klebsiella pneumoniae A) [µg/mL]	MIC (Enterobacter cloacae P99) [µg/mL]	MIC [11] [µg/mL]	MIC [12] [µg/mL]	also measured
CCn1cc(C(=O)O)c(=O)c2cc(F)c(N3CCN(C=N[C@@H]4C(=O)N5[C@@H]4SC(C)(C)[C@@H]5C(=O)O)CC3)cc21 [Compound B, [2S-(2α,5α,6β)]-7-[4-[[[2-(Carboxy)-3,3-dimethyl-7-oxo-4-thia-1-azabicyclo[3.2.0]hept-6-yl]imino]methyl]-1-piperazinyl]-1-ethyl-6-fluoro-1,4-dihydro-4-oxo-3-quinolinecarboxylic acid monosodium salt]	31.3	0.98	62.5	7.8	62.5	1.95	3.9	7.8	15.6	7.8	2	0.25	0.063	0.125	0.063	0.031	0.125	0.063	0.25	8	MIC (Proteus mirabilis 2; Broth Dilution Method, Proteus mirabilis 2, read-out: In Vitro MIC): 0.125 µg/mL
CCn1cc(C(=O)O)c(=O)c2cc(F)c(N3CCN(C=N[C@@H]4C(=O)N5C(C(=O)O)=C(COC(C)=O)CS[C@H]45)CC3)cc21 [Compound I, [6R-[6α,7β(Z)]]-7-[4-[[[3-[Acetyloxy)methyl]-2-carboxylic-8-oxo-5-thia-1-azabicyclo[4..0]oct-2-en-7-yl]imino]methyl]-1-piperazinyl]-1-ethyl-6-fluoro-1,4-dihydro-4-oxo-3-quinolinecarboxylic acid monosodium salt]	–	–	–	–	–	–	–	–	–	–	4	0.25	–	0.125	0.063	0.063	0.125	0.063	0.25	8	MIC [13]: 1 µg/mL; MIC [14]: 2 µg/mL; MIC (Proteus mirabilis 2; [17]): 0.063 µg/mL; MIC (Proteus mirabilis 90): 0.5 µg/mL; MIC ([8]; Broth Dilution Method, Enterobacter cloacae 5699, read-out: In Vitro MIC): 0.125 µg/mL; MIC (Escherichia coli 4): 0.125 µg/mL; MIC [15]: 0.5 µg/mL
CCn1cc(C(=O)O)c(=O)c2cc(F)c(N3CCN(C=N[C@@H]4C(=O)N5C(C(=O)O)=C(C)CS[C@H]45)CC3)cc21 [Compound C, 6R-[6α,7β(E(]]-7-[4-[[(2-Carboxy-3-methyl-8-oxo-5-thia-1-azabicyclo[4.2.0]oct-2-en-7-yl)imino]-methyl]-1-piperazinyl]-1-ethyl-6-fluoro-1,4-dihydro-4-oxo-3-quinolinecarboxylic acid disodium salt]	250	3.9	3.9	3.9	500	0.98	3.9	3.9	7.8	15.6	8	–	0.063	0.125	0.063	0.063	0.125	0.125	0.25	2	MIC [14]: 1 µg/mL; MIC (Proteus mirabilis 2; [17]): 0.063 µg/mL; MIC (Proteus mirabilis 90): 0.25 µg/mL; MIC (Escherichia coli 4): 0.125 µg/mL; MIC [15]: 8 µg/mL
